The record followed here is PubChem BioAssay AID1406 (The Scripps Research Institute Molecular Screening Center, 2008).

Calls of active or inactive are those of the source.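 The calls were made as follows: active = STAT1 reporter activators whose half-maximal activating concentration EC50 is 10 µM or lower; inactive = EC50 above 10 µM or no activation.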 A value given as a limit tells only on which side of the number the result lay.

The first assay relates to NIH 3T3 STAT1 luciferase reporter, luminescence. The experiment in a line: STAT1 transcription enhancement, IFN-gamma induced – cell-based, NIH 3T3, luciferase luminescence, counter-screen for STAT3 activator project, dose response (AID 1406).
Conditions: not given
For orientation: EC50 means the concentration that produces a half-maximal response. Consider `c1ccc2c(CNC3CCCCCC3)c[nH]c2c1`, for which the EC50 is > 55.7 µM (inactive).

The same assay, now with this note: cells stimulated with IFN-gamma at EC80.
For the molecule `CCOc1ccccc1-c1n[nH]c(=S)o1`, the EC50 was > 55.7 µM (inactive).
On the same count and under the same terms, to `Cc1[nH]n(-c2ccccc2)c(=O)c1/C=C1/C=c2ccccc2=N1` belongs > 55.7 µM (inactive); to `CC1=C(C)C(=O)C(N2CCOCC2)=CC1=O`, > 55.7 µM (inactive).
As to `COc1ccccc1C(=O)Nc1cc(Cl)ccc1O`, the EC50 was > 55.7 µM (inactive).
Same read-out and setting: to `Cc1cccc(NC(=O)c2cc([N+](=O)[O-])ccc2Cl)c1O` belongs > 55.7 µM (inactive); to `Cc1c(C(=O)NCc2cccnc2)oc2ccc(S(=O)(=O)N3CC(C)CC(C)C3)cc12` (stereo unspecified), > 55.7 µM (inactive).
In the case of `CN(C)C(CN1C(=O)C2CC=CCC2C1=O)c1cn(C)c2ccccc12` (stereo unspecified), the EC50 is > 55.7 µM (inactive).
On the same count and under the same terms, the result for `CN1CCN(C(=O)CNc2ccc(C(F)(F)F)cc2[N+](=O)[O-])CC1` reads > 55.7 µM (inactive).
For the molecule `CC(=O)Nc1c(Cl)n(C(C)=O)c2ccccc12`, the EC50 is > 55.7 µM (inactive).
Still for that read-out and setting: to `COc1ccc(-c2nc3scc(-c4ccccc4)n3n2)cc1` belongs > 55.7 µM (inactive); to `CCOC(=O)c1sc(NCc2ccco2)c(-c2nc3ccccc3s2)c1N`, > 55.7 µM (inactive).
Same read-out and setting: the result for `Cc1cc(C)n(-c2nnc3n2N=C(c2c[nH]c4ccccc24)CS3)n1` reads > 55.7 µM (inactive); that for `NC(=O)CSc1c[nH]c2ccccc12`, > 55.7 µM (inactive).
On the same count and under the same terms, to `CN1N=C(C(=O)N2CCc3c([nH]c4ccccc34)C2c2c(F)cccc2Cl)CCC1=O` (stereo unspecified) belongs > 55.7 µM (inactive).
Regarding `O=C(Cc1cnc2ncnn2c1)N1CCc2c([nH]c3ccccc23)C1c1ccccc1F` (stereo unspecified), the EC50 was > 55.7 µM (inactive).
Still for that read-out and setting: to `COC(=O)c1sccc1NC(=O)c1cc2c(s1)CCCC2` belongs > 55.7 µM (inactive); to `CCC(C(=O)Nc1ccccc1OC)n1c(C(=O)OC)cc2ccsc21` (stereo unspecified), > 55.7 µM (inactive); to `CCCSc1nnc(Sc2nnnn2-c2ccccc2)s1`, > 55.7 µM (inactive).
`COc1ccc(CN2CCN(S(=O)(=O)c3ccc(C)cc3)CC2)cc1Br`: the EC50 was > 55.7 µM (inactive).
The same measure, in the same setting: the result for `COc1ccc(Cl)cc1NC(=O)c1oc(C)nc1C` reads > 55.7 µM (inactive); that for `COCCCNC(=O)c1cc2c(-c3ccc(Cl)cc3)nn(C)c2s1`, > 55.7 µM (inactive); that for `CC(=O)NCCC(=O)N1CCc2c([nH]c3ccccc23)C1c1cccc(Cl)c1` (stereo unspecified), > 55.7 µM (inactive).
Still for that read-out and setting: to `COC(=O)c1sccc1NC(=O)c1ccc(Br)s1` belongs > 55.7 µM (inactive).
On the same count and under the same terms, to `COc1ccc(NC(=O)N2CCn3c2nc2ccccc23)cc1` belongs > 55.7 µM (inactive); to `CC1CCN(C(=O)Cn2c(=O)n(CCc3ccccc3)c(=O)c3ccccc32)CC1`, > 55.7 µM (inactive).
With `COCc1cc(=O)n2c(-c3ccccc3OC)n[nH]c2n1`, the EC50 is > 55.7 µM (inactive).
In the case of `CCOc1ccc(CN2CCN(Cc3cc4ccccc4[nH]3)CC2CCO)cc1` (stereo unspecified), the EC50 was > 55.7 µM (inactive).
Consider `CN1C(=O)/C(=C\c2cc(Br)cs2)c2ccccc21`, for which the EC50 was > 55.7 µM (inactive).
As to `O=C(CCN1CCOCC1)N1CCc2c([nH]c3ccccc23)C1c1cccc(Cl)c1` (stereo unspecified), the EC50 was > 55.7 µM (inactive).
As to `CC(C)CC1c2[nH]c3ccccc3c2CCN1C(=O)CCC(=O)N(C)C` (stereo unspecified), the EC50 was > 55.7 µM (inactive).
Take `CN1CCN(CCCNC(=O)c2cc3c(-c4ccc(Cl)cc4)nn(C)c3s2)CC1`: the EC50 is > 55.7 µM (inactive).
Turning to `O=C(CCc1nnc(Cc2ccc3c(c2)OCO3)o1)NCc1nc2ccccc2s1`, the EC50 is > 55.7 µM (inactive).
Turning to `CCOc1ccccc1CN1CCN(Cc2cc3ccccc3[nH]2)CC1CCO` (stereo unspecified), the EC50 was > 55.7 µM (inactive).
On the same count and under the same terms, the result for `O=C(CN1CCNCC1)Nc1ccc(Oc2ccccc2)cc1` reads > 55.7 µM (inactive).
Still for that read-out and setting: the result for `CCN1CCN(C(=O)c2cc3c(-c4ccc(Cl)cc4)nn(C)c3s2)CC1` reads > 55.7 µM (inactive); that for `COc1ccc(C2c3[nH]c4ccccc4c3CCN2C(=O)c2cc3ncccn3n2)c(F)c1` (stereo unspecified), > 55.7 µM (inactive); that for `COc1ccc(Cl)cc1NC(=O)Nc1ccc(Br)cn1`, > 55.7 µM (inactive).
Consider `COCCNC(=O)C(=O)NNC(=O)c1ccccc1OC`, for which the EC50 is > 55.7 µM (inactive).
On the same count and under the same terms, the result for `CCCc1nnc(N2C(=O)c3cccc4cccc(c34)C2=O)s1` reads > 55.7 µM (inactive); that for `COc1ccc(S(=O)(=O)Nc2nc3ccccc3s2)cc1OC`, > 55.7 µM (inactive); that for `COc1cc(NC(=O)c2cc(-c3ccco3)on2)c(OC)cc1Cl`, > 55.7 µM (inactive).
Same read-out and setting: the result for `CCC(=O)NCCSc1c[nH]c2ccccc12` reads > 55.7 µM (inactive).
Same read-out and setting: to `COc1cccc(-c2nc(N3CCCCC3C)c3ccccc3n2)c1O` (stereo unspecified) belongs > 55.7 µM (inactive); to `COc1ccc(Br)cc1C(=O)Nc1cccc(C)c1`, > 55.7 µM (inactive); to `CN(C)C(=O)COC(=O)/C=C/c1ccccc1[N+](=O)[O-]`, > 55.7 µM (inactive).
On to `COc1ccccc1NC(=O)c1[nH]c(C)c(C(C)=O)c1C`, for which the EC50 is > 55.7 µM (inactive).
Turning to `O=C(Nc1nnc(-c2ccccc2Cl)o1)c1nc2ccccc2s1`, the EC50 was > 55.7 µM (inactive).
`Nc1ccccc1Sc1nc2ccccc2[nH]1`: the EC50 is > 55.7 µM (inactive).
Take `Cn1nc(-c2ccc(Cl)cc2)c2cc(C(=O)NCCCN3CCCC3)sc21`: the EC50 was 21.6 µM (inactive).
On the same count and under the same terms, the result for `CC(=O)NCCC(=O)N1CCc2c([nH]c3ccccc23)C1c1cccc(C)c1` (stereo unspecified) reads > 55.7 µM (inactive).
Still for that read-out and setting: to `O=C(C1CCCN(S(=O)(=O)c2cccc3cccnc23)C1)N1CCc2ccccc21` (stereo unspecified) belongs > 55.7 µM (inactive).
The same measure, in the same setting: to `Cc1noc(/C=C/N(C)C)c1S(=O)(=O)N1CCc2ccccc21` belongs > 55.7 µM (inactive).
For `CCOc1ccccc1C1CC(c2cccs2)=NN1S(C)(=O)=O` (stereo unspecified), the EC50 is > 55.7 µM (inactive).
Consider `CCc1cc2c(NCCC(=O)O)nc(C)nc2s1`, for which the EC50 is > 55.7 µM (inactive).
As for `Nc1nc(-c2ccc(Cl)cc2)nn1C(=O)c1cccs1`, the EC50 was > 55.7 µM (inactive).
The same measure, in the same setting: the result for `COc1ccc(-c2nnc(Nc3nc4c(OC)cccc4s3)o2)cc1` reads > 55.7 µM (inactive).
Same read-out and setting: to `O=C(CCCSc1nc2ccccc2s1)NCc1ccco1` belongs > 55.7 µM (inactive); to `O=C(c1cc[n+]([O-])cc1)N1CCc2c([nH]c3ccccc23)C1c1ccccc1Cl` (stereo unspecified), > 55.7 µM (inactive).
Still for that read-out and setting: to `COc1cc(NC(=O)c2cc(C3CC3)on2)c(OC)cc1Cl` belongs > 55.7 µM (inactive); to `CCOC(=O)C1(CC2CCCCO2)CCN(Cc2cc3ccccc3[nH]2)CC1` (stereo unspecified), > 55.7 µM (inactive).
Regarding `Cc1nn(-c2ccc(Cl)cc2)c(N)c1C(O)(CSc1nccn1C)C(F)(F)F` (stereo unspecified), the EC50 was > 55.7 µM (inactive).
Still for that read-out and setting: to `Cc1nc2ccccc2cc1O` belongs > 55.7 µM (inactive).
On to `CC(=O)n1cc(Nc2ccc([N+](=O)[O-])cc2)c2ccccc21`, for which the EC50 is > 55.7 µM (inactive).
Take `CC(C)CC(=O)NC(=S)Nc1nc(-c2ccccc2)cs1`: the EC50 was > 55.7 µM (inactive).
`O=C(COc1ccccc1Cl)Nc1cc(Cl)ccc1O`: the EC50 is > 55.7 µM (inactive).
On to `Cc1nc2c(n1C1CCCCC1)C(=O)c1ccccc1C2=O`, for which the EC50 is > 55.7 µM (inactive).
As to `COc1ccc(C2c3[nH]c4ccccc4c3CCN2C(=O)c2ccc(=O)n(C)n2)c(F)c1` (stereo unspecified), the EC50 was > 55.7 µM (inactive).
In the case of `Nc1nnc(Cc2c[nH]c3ccccc23)s1`, the EC50 was > 55.7 µM (inactive).
Consider `O=C(O)C(Cc1c[nH]c2ccccc12)N1Cc2ccccc2C1=O` (stereo unspecified), for which the EC50 is > 55.7 µM (inactive).
The same measure, in the same setting: the result for `O=c1c2ccccc2ncn1Cc1ccco1` reads > 55.7 µM (inactive).
Take `Cc1nnc(NC(=O)c2oc3c(ccc4ccccc43)c2C)s1`: the EC50 is > 55.7 µM (inactive).
With `CCCc1cc(C(=O)Nc2cc(OC)c(Cl)cc2OC)no1`, the EC50 was > 55.7 µM (inactive).
On the same count and under the same terms, the result for `Cc1nonc1CC(=O)N1CCc2c([nH]c3ccccc23)C1c1ccccc1F` (stereo unspecified) reads > 55.7 µM (inactive); that for `COCCSc1ccccc1C(=O)NCCc1ccccc1`, > 55.7 µM (inactive).
On the same count and under the same terms, to `COCCCNc1nc2c(-c3cccc(C(F)(F)F)c3)nnn2c2ccccc12` belongs > 55.7 µM (inactive); to `Cc1c(C#N)c2ccccc2n1CC(=O)O`, > 55.7 µM (inactive); to `Cc1ccc(CC(=O)Nc2nc3c(s2)CCCC3)cc1`, > 55.7 µM (inactive).
Still for that read-out and setting: to `CCCN(CCC)C(=O)Cn1c2ccccc2c2nc(=O)cc(C)n21` belongs > 55.7 µM (inactive).
`COc1ccccc1C(=O)NNC(=S)Nc1ccccc1`: the EC50 is > 55.7 µM (inactive).
As to `COC(=O)C(NC=O)C(O)(Cc1ccccc1)C(F)(F)F` (stereo unspecified), the EC50 was > 55.7 µM (inactive).
With `COCCNC(=O)c1cc2c(-c3ccc(Cl)cc3)nn(C)c2s1`, the EC50 is > 55.7 µM (inactive).
As to `CC(=O)N1N=C(c2ccccc2O)OC1(C)CC(=O)Nc1ccccc1` (stereo unspecified), the EC50 was > 55.7 µM (inactive).
Still for that read-out and setting: to `CCOC(=O)CC1C(=O)NCCN1C(=O)c1cc2c(=O)n3cccc(C)c3nc2s1` (stereo unspecified) belongs > 55.7 µM (inactive).
`COc1cccc2sc(Nc3nnc(-c4ccc(F)cc4)o3)nc12`: the EC50 is > 55.7 µM (inactive).
As for `O=C(c1cccnc1)N1CCc2ccccc21`, the EC50 was > 55.7 µM (inactive).
On to `Cn1nc(-c2ccc(Cl)cc2)c2cc(C(=O)NCCN3CCOCC3)sc21`, for which the EC50 was > 55.7 µM (inactive).
Same read-out and setting: the result for `O=C(Nc1ccccc1O)c1csc2c1CCCC2` reads > 55.7 µM (inactive).
As to `Cn1c(CNc2ccccc2O)nc2ccccc21`, the EC50 is > 55.7 µM (inactive).
`COc1ccc(C)cc1NC(=O)c1[nH]c(C)c(C(C)=O)c1C`: the EC50 was > 55.7 µM (inactive).
As to `COCc1cc(C)nc2sc(C(=O)NN)c(-n3cccc3)c12`, the EC50 is > 55.7 µM (inactive).
